From patent publication US20230406853A1, “COVALENT CDK2-BINDING COMPOUNDS FOR THERAPEUTIC PURPOSES” (Umbra Therapeutics, Inc., priority 2021, published 2023)

molecular target: CycE1-CDK2 (Homo sapiens, UniProt P24941); test: Cdk2 Enzymatic TR-FRET Assay; format: biochemical; conditions: CDK2/CycE 5 nM, ATP 100 μM, 60 minutes pre-incubation with compound; read-out: CDK2 Kinase
From the text: A TR-FRET system was used to detect CycE1-CDK2 kinase activity. The assay used a Europium-labeled anti-phospho-Ser/Thr antibody and ULight™-labeled peptide substrate (eIF4E-binding protein 1). When CycE1-CDK2 phosphorylates the peptide the phosphorylated Thr is recognized by the Europium-labeled anti-phospho-Ser/Thr antibody. Upon excitation of the Europium donor fluorophore at 337 nm, energy is transferred to the ULight™ acceptor dye on the substrate, resulting in the emission of light at 665 nm. The fluorescent signal is proportional to the level of ULight™ peptide phosphorylation and to the kinase activity.
The stock solution was prepared as follows: • 1× Reaction buffer: 50 mM HEPES pH 7.5, 10 mM MgCl2, 0.5 mM TCEP, 0.01% Tween®20, 1 mM EGTA, 0.001% fatty acid free (faf)-BSA; • 1× Detection buffer: equilibrate the Detection buffer at RT for at least 20 minutes then dilute 10-fold the stock in water; • 4×ENZYME mix: CDK2/CycE enzyme (5 nM final concentration in kinase reaction) in 1× Reaction buffer; • 4×SUBSTRATE mix: 4E-BP substrate (50 nM final concentration in kinase reaction)+ATP (100 μM final concentration in kinase reaction) in 1× Reaction buffer • 2×STOP/DETECTION mix: EDTA (10 mM final concentration in assay)+Anti-Phosphate antibody (0.5 nM final concentration in assay) in 1× Detection buffer • Neutral Control: Assay with no inhibition (MAX activity) • Inhibitor Control: Assay with IC100 (1 mM) reference inhibitor JNJ7706621 (MIN activity)
The assay was assembled directly in a white, small volume, Proxiplate (PerkinElmer) as follows: • Step 1: Charge compounds=5 μL/well • Step 2: Charge kinase=2.5 μL/well→total volume 7.5 μL/well • The plate is sealed and incubated at room temperature for 60 minutes • Step 3: Substrate mix (substrate/ATP)=2.5 μL/well→total enzymatic reaction volume 10 μL/well • The plate is sealed and incubated at room temperature for 60 minutes • Step 4: Stop/Detection mix (EDTA/antibody)=10 μL/well→total volume 20 μL/well • The plate is sealed and incubated at room temperature for at least 2 hours and fluorescence signal is measured at PHERAstar FSX The reading conditions are the followings for PHERAstar FSX:
A 384-microtiter plate (MTP), containing 20 test compounds in eight-points dose response, is prepared. Test compounds dose response curves are prepared in automation in 100% DMSO in a CyBio Felix, starting from a DMSO stock solution of 10 mM. To obtain the eight-points dose-response curve, a serial dilution protocol in 100% DMSO is performed for each compound by using a 96 MTP as a support. 20 μL of the 10 mM stock solutions are transferred in row A of a 96 MTP U-bottom from column 2 to 11 for a total of 10 compounds/plate. Starting from the 10 mM stock, serial dilutions across rows, from A to B and proceeding up to H, are performed for each compound by transferring 6.3 μL of the more concentrated fluid in 13.7 μL of 100% DMSO.
In order to generate duplicate data points each well of the 96 MTP is then replicated into two wells of a 384 MTP plate for each compound and for each concentration to be tested. The 384 MTP compound plate is used as source plate in a “mother to child” process with a CyBi®-Well dispenser in which 1 μL of compound is moved into a destination plate pre-filled with 24 μL of reaction buffer, obtaining 2× concentrated compound solution.
Genedata Screener® 17.0 was used for data analysis. In the implemented workflow, the following calculations were conducted: • Calculate the Response Value (KRV) from the respective original data as follow:
HTRF Assay: Ratio=665 nm_FRET/620 nm_Ab*10000 • Calculate the % Inhibition of the compound (Inhibitory effect). KRV was normalized versus Neutral Controls and Inhibitor Controls (JNJ7706621) to obtain Activity % according to the following formula:
Activity %=−100*(x−<Neutral Control>)/(<Inhibitor Control>−<Neutral Control>) […]

| SMILES | IC50 |
| --- | --- |
| CS(=O)(=O)N1CCC(Nc2ncc3cc(C(F)F)c(=O)n(CCOC(=O)c4ccc(S(=O)(=O)n5cnc(C6CC6)n5)cc4)c3n2)CC1 [Compound 227] | < 10 µM |
| CS(=O)(=O)N1CCC(Nc2ncc3ccc(=O)n(CCCS(=O)(=O)n4cnc(C5CC5)n4)c3n2)CC1 [Compound 245] | < 10 µM |
| CS(=O)(=O)N1CCC(Nc2ncc3ccc(=O)n(CC(=O)Nc4ccc(S(=O)(=O)n5cnc(C6CC6)n5)cc4)c3n2)CC1 [Compound 232] | < 10 µM |
| CS(=O)(=O)N1CCC(Nc2ncc3ccc(=O)n(CC(=O)Nc4ccc(S(=O)(=O)n5cnc(-c6ccccc6)n5)cc4)c3n2)CC1 [Compound 229] | < 10 µM |
| Cc1cc(S(=O)(=O)n2cnc(-c3ccccc3)n2)ccc1NC(=O)Cn1c(=O)ccc2cnc(NC3CCN(S(C)(=O)=O)CC3)nc21 [Compound 252] | < 10 µM |
| CNc1ncc2ccc(=O)n(CC(=O)Nc3ccc(S(=O)(=O)n4cnc(-c5ccccc5)n4)cc3)c2n1 [Compound 249] | > 200 µM |
| Cc1cc(NC(=O)Cn2c(=O)ccc3cnc(NC4CCN(S(C)(=O)=O)CC4)nc32)ccc1S(=O)(=O)n1cnc(-c2ccccc2)n1 [Compound 238] | < 10 µM |
| CS(=O)(=O)N1CCC(Nc2ncc3ccc(=O)n(CCOCCCS(=O)(=O)n4cnc(-c5ccccc5)n4)c3n2)CC1 [Compound 230] | 10 to 100 µM |
| CC(C)c1ncn(S(=O)(=O)c2ccc(NC(=O)Cn3c(=O)ccc4cnc(NC5CCN(S(C)(=O)=O)CC5)nc43)cc2)n1 [Compound 255] | < 10 µM |
| Cc1cc(NC(=O)Cn2c(=O)ccc3cnc(NC4CCN(S(C)(=O)=O)CC4)nc32)ccc1S(=O)(=O)n1cncn1 [Compound 237] | < 10 µM |
| CS(=O)(=O)N1CCC(Nc2ncc3ccc(=O)n(CC(=O)NCc4ccc(S(=O)(=O)n5cnc(-c6ccccc6)n5)cc4)c3n2)CC1 [Compound 240] | < 10 µM |
| CS(=O)(=O)N1CCC(Nc2ncc3ccc(=O)n(CCCS(=O)(=O)n4cncn4)c3n2)CC1 [Compound 244] | < 10 µM |
| CS(=O)(=O)N1CCC(Nc2ncc3cc(C(F)F)c(=O)n(CC(=O)Nc4ccc(S(=O)(=O)n5cnc(C6CC6)n5)cc4)c3n2)CC1 [Compound 234] | < 10 µM |

The remaining lines, values ahead:

| IC50 | SMILES |
| --- | --- |
| < 10 µM | CS(=O)(=O)N1CCC(Nc2ncc3cc(Cl)c(=O)n(CCCS(=O)(=O)n4cnc(C5CC5)n4)c3n2)CC1 [Compound 286] |
| < 10 µM | CS(=O)(=O)N1CCC(Nc2ncc3cc(CCO)c(=O)n(CCCS(=O)(=O)n4cnc(-c5ccccc5)n4)c3n2)CC1 [Compound 284] |
| < 10 µM | CS(=O)(=O)N1CCC(Nc2ncc3ccc(=O)n(CCS(=O)(=O)n4cncn4)c3n2)CC1 [Compound 291] |
| < 10 µM | O=C(Cn1c(=O)ccc2cnc(NC3CCOCC3)nc21)Nc1ccc(S(=O)(=O)n2cnc(C3CC3)n2)cc1 [Compound 279] |
| < 10 µM | CS(=O)(=O)N1CCC(Nc2ncc3cc(CCO)c(=O)n(CCCS(=O)(=O)n4cnc(C5CC5)n4)c3n2)CC1 [Compound 276] |
| < 10 µM | CCOC(=O)Cc1ncn(S(=O)(=O)c2ccc(NC(=O)Cn3c(=O)ccc4cnc(NC5CCN(S(C)(=O)=O)CC5)nc43)cc2)n1 [Compound 260] |
| > 200 µM | CC(C)(C)c1ncn(S(=O)(=O)c2ccc(NC(=O)Cn3c(=O)ccc4cnc(NC5CCN(S(C)(=O)=O)CC5)nc43)cc2)n1 [Compound 262] |
| > 200 µM | O=C(Cn1c(=O)ccc2cnc(NC3CCCCCC3)nc21)Nc1ccc(S(=O)(=O)n2cnc(C3CC3)n2)cc1 [Compound 295] |
| < 10 µM | O=c1ccc2cnc(NC3CCOCC3)nc2n1CCCS(=O)(=O)n1cnc(C2CC2)n1 [Compound 257] |
| < 10 µM | CS(=O)(=O)N1CCC(Nc2ncc3cc(Cl)c(=O)n(CCCS(=O)(=O)n4cnc(-c5ccccc5)n4)c3n2)CC1 [Compound 287] |
| > 200 µM | CC(C)N1CCC(Nc2ncc3ccc(=O)n(CCCS(=O)(=O)n4cnc(C5CC5)n4)c3n2)CC1 [Compound 277] |
| < 10 µM | COCCc1cc2cnc(NC3CCN(S(C)(=O)=O)CC3)nc2n(CCCS(=O)(=O)n2cnc(C3CC3)n2)c1=O [Compound 288] |
| < 10 µM | CC(C(=O)Nc1ccc(S(=O)(=O)n2cncn2)cc1)n1c(=O)ccc2cnc(NC3CCN(S(C)(=O)=O)CC3)nc21 (stereo not drawn) [Compound 294] |
| < 10 µM | CS(=O)(=O)N1CCC(Nc2ncc3ccc(=O)n(CCS(=O)(=O)n4cnc(-c5ccccc5)n4)c3n2)CC1 [Compound 274] |
